Article PMC7294595 (Bioorganic & medicinal chemistry, 2020)
Where a SMILES comes first, the peptide text is derived from it. [ ]: non-standard residue; d: D form. pY = N[C@@H](Cc1ccc(OP(=O)(O)O)cc1)C(=O)O

What was measured:
[1] = molecular target: STAT3-gp130 phosphopeptide interaction (STAT3 SH2 domain) (Homo sapiens, UniProt P40763); experiment: Competition fluorescence polarization assay
STAT3:DNA binding = details: electrophoretic mobility shift assay measuring STAT3:DNA binding; cited from earlier work

Chain of STAT3-gp130 phosphopeptide interaction (STAT3 SH2 domain) (P40763 127-711): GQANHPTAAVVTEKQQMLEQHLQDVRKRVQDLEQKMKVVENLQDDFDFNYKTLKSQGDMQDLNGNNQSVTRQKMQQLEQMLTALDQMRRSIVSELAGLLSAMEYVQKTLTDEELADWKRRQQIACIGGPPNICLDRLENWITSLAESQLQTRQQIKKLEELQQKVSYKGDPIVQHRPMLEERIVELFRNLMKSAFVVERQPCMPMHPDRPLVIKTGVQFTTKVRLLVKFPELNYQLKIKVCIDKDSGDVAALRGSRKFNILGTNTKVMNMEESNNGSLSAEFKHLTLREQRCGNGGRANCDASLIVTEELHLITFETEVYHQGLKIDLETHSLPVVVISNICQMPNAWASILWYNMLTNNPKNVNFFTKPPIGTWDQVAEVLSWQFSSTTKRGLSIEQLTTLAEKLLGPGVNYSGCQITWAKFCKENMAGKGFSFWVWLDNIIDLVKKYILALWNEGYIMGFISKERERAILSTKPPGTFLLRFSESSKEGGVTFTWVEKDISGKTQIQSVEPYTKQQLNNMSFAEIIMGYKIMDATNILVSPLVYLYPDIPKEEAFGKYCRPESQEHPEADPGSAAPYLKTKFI

Molecule | IC50 [1] [nM] | IC50 (STAT3:DNA binding) [nM]
CC(=O)NCC(=O)N[C@@H](Cc1ccc(OP(=O)(O)O)cc1)C(=O)N[C@@H](CC(C)C)C(=O)N1CCC[C@H]1C(=O)N[C@@H](CCC(N)=O)C(=O)N[C@H](C(=O)N[C@H](C(N)=O)C(C)C)[C@@H](C)O [ac-pTyr] (Ac-G[pY]LPQTV-NH2) | 610 | 
Ac-G[pY]LPQTV-NH2 [gp130-derived phosphopeptide] |  | 150
